Results reported in patent publication US11234964B2, “Use of melatonin for the treatment of tumors” (UNIVERSIDAD DE GRANADA, priority 2017, dated 2022).
Entries after “also recorded” stand apart in the source; their conditions may differ.

Legend:
[1] = system: CAL-27 and SCC9 cells xenografts; assay: Tumor volume in xenografted mice (photographs, NMR analysis); format: in vivo, athymic nude mice (nu/nu); conditions: for tumor volume: intratumoral injection
Method: (§1) For the in vivo assays, athymic nude mice (nu/nu) (Janvier, Pays de la Loire, France) of about 5-6 weeks of age (18-20 g) were used. The animals were held in the animal housing unit of the Biomedical Research Center of University of Granada (CIBM) in sterile conditions and under controlled photoperiod (12:12 h) and temperature (22±1° C.) environments, with ad libitum water and laboratory diet. The handling and transplant of the animals was carried out in a laminar flow biosafety cabinet. The animals were anesthetized with an i.p. injection of ketamine (80 mg/kg) and xylazine (4 mg/kg).
(§2) Xenografts were performed with CAL-27 and SCC9 cells (the latter being resistant to melatonin). Cells enzymatically separated with trypsin-EDTA are resuspended at a concentration of 4×10^6 cells per mouse in PBS. Cell viability is determined by means of the Trypan Blue test. The cells are injected into the left flank of the mouse, with a volume of 200 μL of cell suspension being injected into each mouse with the help of a 1 mL syringe with a needle measuring 16×0.5 mm.
The body weight and tumor size are measured and recorded two or three times a week throughout the experiment. The tumor volume is calculated using the following formula: ½ (L×W2) (mm^3), where L is the length and W is the width. After the appearance of a tumoral node (100 mm^3), the mice carrying the tumors are randomly assigned to several groups.
The experimental groups were as follows: • 1. Mouse with untreated tumor • 2. Mouse with tumor treated with subcutaneously administered melatonin (s.c.) at a dose of 300 mg/kg (4.5% w/v melatonin solution). The concentration of melatonin in the tumor when melatonin is administered through this route is 10 ng/mg of proteins. • 3. Mouse with tumor treated with administered intratumorally melatonin (60 μl of a 0.1% w/v melatonin solution) fora tumor volume of 100 mm^3. 0.1% of melatonin is the minimum effective dose (in vitro) for inducing 80% cell death. When 0.1% of melatonin is administered, a concentration of 450 ng/mg of proteins is reached in the tumor. • 4. Mouse with tumor treated with intratumorally melatonin administered (60 μl of a 4.5% melatonin solution) for a tumor volume of 100 mm^3.
Therefore, once the tumor reached the indicated volume of 100 mm^3, it is treated with melatonin daily for 21 days according to the following protocol: • A. Injected s.c. (300 mg/kg which is equivalent to a 4.5% solution) • B. Injected directly into the tumor (60 μl of a 0.1% melatonin solution) • C. Injected directly into the tumor (60 μl of a 4.5% melatonin solution) • D. Injected directly into the tumor (60 μl of a 0.1% melatonin solution) until the complete disappearance of the tumor (28 days). • E. Photographs of the tumor were taken at the end of the treatment of each of the groups. […]

[2] = athymic nude (nu/nu), mouse, in vivo
Method: as §1, §2
The experimental groups were as follows: • 1. […]
The concentration of melatonin in the tumors was measured after sacrificing the animals after 21 days. When it is injected directly into the tumor, the concentration of melatonin cannot be measured due to the limited amount of sample taking into account that the tumor practically disappears.

[3] = system: tumor cells; assay: Mitochondrial changes, oxygen consumption and free radicals in tumor cells; format: cell-based
From the text: The relationship between the mitochondrial changes caused by melatonin and the cell death induced by this molecule in these tumor cells was studied. Melatonin increases the number of mitochondria as well as the number of cristae, DNA, and mitochondrial mass. The result is an increase in respiratory chain complexes, and accordingly an increase in oxygen consumption, which is related to an increase in free radicals and oxidative stress reflected by an increase in the GSSG/GSH ratio. However, the antioxidant capacity is not modified. The activity and the expression of antioxidant enzymes such as GPx and the GRd is not modified either. […] In other words, mitochondrial activity increases, and accordingly free radicals which induce cell death also increase. To carry out the assays, CAL-27 and SCC9 cells have been used as typical example of head and neck squamous cell carcinoma (HNSCC) cancer cells.

[4] = system: tumor cells; assay: Melatonin penetration in tumor cells in vitro; format: cell-based; conditions: cells incubated with 1500 μM melatonin for 24 hours
Method: To carry out the assays, CAL-27 and SCC9 cells have been used as typical example of head and neck squamous cell carcinoma (HNSCC) cancer cells.
In the in-vitro experiments, the tumor cells were incubated with different concentrations of melatonin. It was observed that melatonin readily enters the tumor cells, reaching levels of 450 ng/mg of proteins after incubating the cells with melatonin at a dose of 1500 μM for 24 hours (FIG. 1).

[5] = system: tumor cells (CAL-27); assay: Cell death, apoptosis and proliferation of tumor cells in vitro; format: cell-based
From the text: To carry out the assays, CAL-27 and SCC9 cells have been used as typical example of head and neck squamous cell carcinoma (HNSCC) cancer cells. […] The relationship between the mitochondrial changes caused by melatonin and the cell death induced by this molecule in these tumor cells has been studied. Melatonin increases mitochondrial mass, mitochondrial DNA, the number of mitochondria, as well as the number of mitochondrial cristae. The result is an increase in respiratory chain complexes, and accordingly an increase in oxygen consumption, which is related to an increase in free radicals and oxidative stress. […] In other words, the cytotoxic effects of melatonin in the tumor cells are related to an increase in mitochondrial function, and the increase in mitochondrial function in the tumor cell in turn induces apoptosis processes, which also entails the inhibition of protein synthesis.

[6] = system: SCC-9 cells; assay: Mitochondrial function and free radicals in melatonin-resistant cells; format: cell-based
From the text: The relationship between the mitochondrial changes caused by melatonin and the cell death induced by this molecule in these tumor cells was studied. Melatonin increases the number of mitochondria as well as the number of cristae, DNA, and mitochondrial mass. The result is an increase in respiratory chain complexes, and accordingly an increase in oxygen consumption, which is related to an increase in free radicals and oxidative stress reflected by an increase in the GSSG/GSH ratio. However, the antioxidant capacity is not modified. The activity and the expression of antioxidant enzymes such as GPx and the GRd is not modified either. […] To carry out the assays, CAL-27 and SCC9 cells have been used as typical example of head and neck squamous cell carcinoma (HNSCC) cancer cells.

[7] = system: CAL-27 tumor cells; assay: GPx and GRd antioxidant enzyme activity in tumor cells; format: cell-based
From the text: The relationship between the mitochondrial changes caused by melatonin and the cell death induced by this molecule in these tumor cells was studied. Melatonin increases the number of mitochondria as well as the number of cristae, DNA, and mitochondrial mass. The result is an increase in respiratory chain complexes, and accordingly an increase in oxygen consumption, which is related to an increase in free radicals and oxidative stress reflected by an increase in the GSSG/GSH ratio. However, the antioxidant capacity is not modified. The activity and the expression of antioxidant enzymes such as GPx and the GRd is not modified either.

COc1ccc2[nH]cc(CCNC(C)=O)c2c1 [melatonin, N-acetyl-5-methoxytryptamine]
tumor volume ([1]; 21 days after treatment): decreases drastically; also recorded: disappearing almost completely; also recorded: the decrease in tumor volume is so drastic that the tumor can hardly be observed
tumor volume ([1]; 28 days after treatment): completely disappears; also recorded: disappears completely; also recorded: virtually disappeared
necrotic areas in tumors (NMR images) ([1]; s.c. administered melatonin): certain necrotic areas are observed
tumor volume with respect to the control ([1]; subcutaneous (systemic route), 300 mg/kg, 21 days): decreases very little; also recorded: the decrease in tumor volume is much lower; also recorded: the tumor volume decreases, although the effect is not very significant
concentration of melatonin reached in the tumor [2]: 450 ng/mg of proteins
ATP production [3]: does not increase
GSSG/GSH ratio (oxidative stress) [3]: increase
free radicals [3]: increase
intermediate products of the Krebs cycle (metabolomics) [3]: increase
mitochondrial DNA [3]: increases
mitochondrial mass [3]: increases
number of mitochondria and number of cristae [3]: increases
oxygen consumption [3]: increase
melatonin levels in tumor cells [4]: 450 ng/mg of proteins
cell cycle [5]: stopping of cell cycle in the S and G2 phases
cell proliferation [5]: Inhibition
size and number of colonies of tumor cells ([5]; CAL-27 irradiated and treated with melatonin): significant decrease
minimum effective dose (in vitro) for inducing 80% cell death ([5]; in vitro): 0.1%
apoptosis ([5]; tumor cells, high concentrations): increases apoptosis in a dose and time dependent manner
mitochondrial oxygen consumption and production of free radicals ([6]; SCC-9 cells, compared with CAL-27): less production of reactive oxygen species; also recorded: much lower
sensitivity of cells to melatonin ([6]; SCC-9 head and neck cancer cells): more resistant
SOD [7]: slight increase
antioxidant capacity [7]: not modified
GPx and GRd antioxidant enzyme activity ([7]; CAL-27 tumor cells): not modified; also recorded: does not increase
